Entries after “also recorded” stand apart in the source; their conditions may differ.

The values below come from US11813261B2, “HDAC inhibitors, alone or in combination with BTK inhibitors, for treating chronic lymphocytic leukemia” (ACETYLON PHARMACEUTICALS, INC., priority 2016, dated 2023).

One data set relates to Mec1 cells. The data set is described as follows: IL-10 production by Mec1 cells stimulated with LPS. The format is cell-based. The following applies: Mec1 cells treated 24 hours.
Data set [1] deals with C57BL/6 mice adoptively transferred with euTCL1 splenocytes. In kind it is in vivo. The following applies: for expression of PD-1 and LAG-3: adoptive transfer, Compound D feed, Compound A injection, 10 weeks post adoptive transfer. As to the method: (§1) Flow cytometric analysis of peripheral blood mononuclear cells (PBMCs) was performed using fluorochrome-labeled monoclonal antibodies and the vitality dye 4′,6-diamidino-2-phenylindole. Data was acquired on an LSRII cytometer (Becton, Dickinson and Company; Franklin Lakes, NJ), and analyzed with FlowJo software (FlowJo; Ashland, Oreg). Absolute cell numbers calculated using AccuCheck Counting beads (ThermoFisher Scientific; Waltham, MA).
(§2) All animal studies involving euTCL1 and its cross with HDAC6KO were performed following established protocols that followed approved Institutional Animal Care and Use Committee (IACUC) procedures. Two mouse models of CLL were used: an Aging CLL model, and an Accelerated CLL Model.
Day 0 • Adoptive transfer of 5×10^6 euTCL1 or euTCL1/1-IDAC6KO splenocytes
Week 3-5 • Flow cytometry analysis • For analysis of disease
Week 9 • Flow cytometry analysis • For analysis of disease
Week 12 • Flow cytometry analysis • For analysis of disease • Observe for survival
Flow cytometry analysis and gating: B-cells (malignant population CD19+/CD5+/CD45R (B220)+/IgM+/Igk+; for normal B-cells CD19+/CD5−/CD45R (B220)+/IgM+/Igk−T-regs were identified as CD3+/CD4+/CD25 hi/IL-7R low. For Co-inhibitory molecule expression CD223 (LAG3), CD279 (PD-1), CD274 (PDL-1), and CD273 (PDL-2).

For data set [2] the following is noted: clinical trials, myeloma and lymphoma; cited from earlier work.
The next data set deals with euTCL1 (CLL model mouse). The data set is described as follows: Aging CLL model. In kind it is in vivo. The procedure:
as §1, §2
Birth • euTCL1 (CLL model mouse) and • euTCL1/HDAC6KO transgenic mice
5-7 Months • Flow cytometry analysis • For analysis of disease
9 Months • Flow cytometry analysis • For analysis of disease
12 Months • Flow cytometry analysis • For analysis of disease • Observe for survival B) Accelerated CLL Model

A further data set relates to CLL. The following applies: cited from earlier work.

Take `O=C(CCCCCCNC(=O)c1cnc(N(c2ccccc2)c2ccccc2)nc1)NO` [Compound A, 2-(diphenylamino)-N-(7-(hydroxyamino)-7-oxoheptyl)pyrimidine-5-carboxamide]: the IL-10 production result in the data set on Mec1 cells was “dose-dependent decrease”. Also, in data set [1], the “expression of PD-1 and LAG-3” value was “lower expression; also recorded: reduced”. Also, the tolerability entry in data set [2] is reported as “well-tolerated”.

As to `O=C(NO)c1cnc(NC2(c3ccccc3)CC2)nc1` [Compound D, N-hydroxy-2-((1-phenylcyclopropyl)amino)pyrimidine-5-carboxamide], the disease burden entry in the data set with euTCL1 (CLL model mouse) (9 months old/25 weeks post treatment start date, vs mice treated without Compound D) is reported as “significantly lower disease burden”; in data set [1] (adoptive transfer model) it was “significantly lower disease burden”. Moreover, the “expression of PD-1 and LAG-3 on T-regs” value in the data set with euTCL1 (CLL model mouse) (feed daily, flow cytometry, vs mice not treated) is “lower PD-1 and LAG-3 expression; also recorded: reduced”. Also, the overall survival entry (in the data set on euTCL1 (CLL model mouse) (vs mice not treated); in data set [1] (adoptive transfer model)) was “more advantageous overall survival” throughout. Further, the “expression of PD-L1 on B cells” value in data set [1] (B cells isolated from treated mice vs non-treated animals) is “decrease”. In data set [1], the “expression of PD-1 and LAG-3” value is “lower expression; also recorded: reduced”. Also, in data set [1] (treatment in chow, week 10 post-adoptive transfer, flow cytometry), the “PD-1 and LAG3 on CD4+ T-cells” value is “normalization”.

In the case of `Nc1ccccc1NC(=O)c1ccc(CNc2nccc(-c3cccnc3)n2)cc1` [MGCD0103], the “antileukemic activity in CLL” value in the data set on CLL is “induced antileukemic activity”.

With `CCCC(CCC)C(=O)O` [valproic acid], the “antileukemic activity in CLL” value with CLL is recorded as “induced antileukemic activity”.
